Test results: patent US20210355418A1, “ELECTRODE HAVING NANO STRUCTURE AT TIP” (Ion Chat Research Corporate, priority 2018, published 2021)

Legend:
Type in all cases: cell-based
[1] = test system: cardiomyocyte-like cells (iCell Cardiomyocyte2); assay: Action potential recording of cardiomyocyte-like cells on conductive glass, charge amplifier (CHAMPL) mode; details: final concentration 100 μM in physiological saline, room temperature
Procedure: Experiments were conducted using myocardial-like cells (iCell Cardiomyocyte2, CDI) as a typical example of cells with low adhesion efficiency to the surface of conductive glass. In order to improve the adhesiveness, the cells were cultured on the surface of conductive glass coated with collagen (Collagen) in a grid pattern in advance. Gold-coated magnetic nanoparticles were introduced into myocardial-like cells and penetrated the cell membrane by a magnetic field. Sodium channels were activated by sodium channel openers such as veratridine and the resulting action potentials were recorded. This experiment was performed at room temperature. […]
Next, using SLO, gold-coated magnetic nanoparticles were introduced into the cell. […] Two days later, the culture medium was replaced with physiological saline before the experiment, and the action potentials of the cells were recorded at room temperature using the charge amplifier mode (ChargeAmpLifier (CHAMPL) mode) (FIG. 10).
However, since the spontaneous action potential could not be observed in this sample (data not shown), Veratridine (Sigma-Aldrich), which acts as a sodium channel opener, was administered to a final concentration of 100 μM in physiological saline. […] Slow depolarization was observed 40 seconds after Veratridine administration, followed by spontaneous action potentials recorded (FIG. 11).

[2] = test system: differentiated NG108-15 cells; assay: Intracellular recording with integrated electrode having nano-protrusion structure at the tip, pressed by manipulator; details: 10 mM, integrated electrode fixed with manipulator
Procedure: More specifically, 0.5 μl PEI (10 mg/ml), 20 ul gold-coated magnetic nanoparticles (NITmagold Cit manufactured by na noimmunotech), and 5 μl of 5 times the concentration HBPS (final concentration of calcium and magnesium is 1 mM) were mixed. It was kept at room temperature for 30 minutes or more. The recording surface of the magnet electrode is fixed upward, the mixed solution is dropped onto the recording surface, adsorbed by magnetic force, and the solution is evaporated at room temperature (Magele).
As shown in the middle drawing of FIG. 3, the entire side surface of the electrode was inserted into a silicon tube (Tyg on) of an insulator to cover it, and the area in contact with the extracellular fluid was further covered with aluminum foil as a ground material. Through the above process, the integrated electrode of the present invention was produced.
The integrated electrode was pressed onto the differentiated NG108-15 cells using a manipulator (FIG. 2), and the integrated electrode was fixed in a state where the nano-protrusion at the tip penetrated the cell membrane and the cells were not crushed. […]
After activating the differentiated NG108-15 cells with 10 mM glutamate, the intracellular potential was measured with an integrated electrode fixed with a manipulator.

[3] = test system: differentiated NG108-15 cells; assay: Intracellular potential measurement by patch clamp method; details: 10 mM
Procedure: More specifically, a solution containing 2% H.A.T. in DMEM (Sigma-Aldrich) containing 10% FBS (Biowest) was used as the culture medium. According to the literature, in order to differentiate NG108-15 cells into nerve-like cells, FBS in the culture medium is reduced to 2% and the intracellular cAMP concentration is increased by applying the membrane-permeable cAMP (Dibutyryl-cAMP), but in this protocol, it was replaced with 10 uM forskolin. The culture medium was changed at intervals of 2 to 3 days.
This experiment verified that the intracellular potential was induced by glutamate in NG108-15 differentiated cells adjusted in (1-1) using the conventional patch-clamp method.
More specifically, using a glass pipette filled with an intracellular electrolyte solution containing 10 mM glutamate to differentiated NG108-15 cells, the cell membranes were tightly adhered and the glass pipette and cells were electrically integrated.

NG108-15 cells = assay: Intracellular potential recording of cultured nerve cells with C-M magnet electrode; details: final external fluid concentration 800 μM; 2 days neural differentiation
Procedure: NG108-15 cells were used for the purpose of showing that recording is possible from cultured nerve cells. NG108-15 cells (neuroblastoma-glioma hybrid cells) were cultured in a culture medium containing DMEM (Sigma-Aldrich), HAT supplement (Thermofisher) and 10% FBS (Biowest). NG108-15 was seeded on a cover glass that was coated with 0.1% Polyethyleneimine (pH8.4, 150 mM Sodium Tetra-Borate (Wako)), and cultured in the culture medium, in which FBS concentration was reduced to 5% from the above culture medium, and the nerve differentiation was induced by adding 500 μM Ibuprofen (Wako). […]
PEI and PEG-gold coated magnetic nanoparticles were mixed and left at room temperature for three hours. This mixed solution is moved to the cell-adhesive surface of the neodymium magnet and left for additional fifteen minutes to magnetically bond the gold nanoparticles to the neodymium magnet electrode. […]
Spontaneous action potentials were recorded by placing C-M electrode on cells seeded on coverslips. […]
In addition to the spontaneous action potential, the following experiment was conducted to confirm whether the neuronal activity by the neurotransmitter glutamate can be recorded. […] Glutamic acid was administered to the extracellular fluid (final external fluid concentration 800 μM), and the response mediated by glutamate receptors was recorded. […]

NG108-15 neurons = assay: Action potential recording with 3-electrode MagEle; details: 10 uM; cells differentiated by 2% FBS, 10 μM Forskolin
Source text: When manufacturing multiple electrodes using MagEle, two types of magnets, a fixed magnet, and an electrode magnet, are used. Wrap the fixed electrodes in a non-conductive material such as parafilm, and attach strip-shaped electrodes made of 2 to 4 pieces of aluminum foil.
This aluminum foil electrode is fixed by magnetic force to the electrode magnet from below, the side surface of the electrode magnet other than facing the cells is wrapped with a non-conductive material such as parafilm to insulate it, and “Clip on ground” is attached above the fixed magnet. A holder for fixing the manipulator is attached (FIG. 20).
Recording was performed from NG108-15 neurons differentiated by 2% FBS, 10 μM Forskolin treatment using the 3-electrode MagEle prepared in (8-1) above (FIG. 22).

## COc1ccc(C(=O)O[C@H]2CC[C@@]3(C)[C@@H]4CC[C@H]5[C@]6(O)C[C@H](O)[C@@]7(O)[C@@H](CN8C[C@@H](C)CC[C@H]8[C@@]7(C)O)[C@]6(O)C[C@@]53O[C@]24O)cc1OC [Veratridine]
[1]
  time to slow depolarization after administration: 40 s

## N[C@@H](CCC(=O)O)C(=O)O [Glutamate, Glutamic acid]
[2]
  intracellular potential response: Action potentials and slow depolarization were recorded
[3]
  intracellular potential response: induced a slow depolarization and action potentials
NG108-15 cells
  membrane potential response mediated by glutamate receptors: depolarization (upward change) response of the membrane potential
  time for membrane potential change to return to baseline: about 90 seconds

## CC(=O)OCC[N+](C)(C)C [Ach]
NG108-15 neurons
  activity of nerve cell groups: activity of all nerve cell groups was increased
